Measured values as given in patent US12600709B2, “Nonpeptide somatostatin type 5 receptor agonists and uses thereof” (Crinetics Pharmaceuticals, Inc., priority 2019, dated 2026).
pEC50: −log10 of the molar value. Read-outs that look alike come from different tables or passages of the source.

Target: T1, human somatostatin receptor subtype 5 (Homo sapiens, UniProt P35346)
T1 construct: expressed in transfected cells
Experiment: cAMP assay for SST5R (inhibition of cAMP in CHO-K1 cells)
Assay type: cell-based
Settings: inhibition of cAMP via human SST5 receptor, read-out: SST5 potency
Source text: General overview: All five SSTR subtypes are Gi coupled G-protein coupled receptors (GPCRs) that lead to decreases in intracellular cyclic AMP (cAMP) when activated by an agonist. Therefore, measurement of intracellular cAMP levels can be used to assess whether compounds of the invention are agonists of SSTR subtypes (John Kelly, Troy Stevens, W. Joseph Thompson, and Roland Seifert, Current Protocols in Pharmacology, 2005, 2.2.1-2.2). One example of an intracellular cAMP assay is described below.
cAMP Assay Protocol for SST5R:
Four days prior to the assay, 2,000 Chinese hamster ovary cells (CHO-K1, ATCC #CCL-61) stably expressing the human somatostatin receptor subtype 5 are plated in each well of a 96-well tissue culture-treated plate in Ham's F12 growth media (ThermoFisher #10-080-CM) supplemented with 10% donor bovine serum (Gemini Bio-Products #100-506), 100 U/mL penicillin; 100 µg/mL streptomycin; 2 mM L-glutamine (Gemini Bio-Products #400-110) and 0.25 mg/mL G418 Sulfate (GoldBio #108321-42-2). The cells are cultured at 37° C., 5% CO2 and 95% humidity. On the day of the assay, the media is aspirated and the cells are treated with 50 μL of 1.6 μM NKH477 (Sigma #N3290) plus various dilutions of compounds of the invention in assay buffer [1× Hank's Balanced Salt Solution (ThermoFisher #SH3058802), 0.5 mM HEPES pH 7.4, 0.1% bovine serum albumin, 0.2 mM 3-Isobutyl-1-methylxanthine (IBMX, VWR #200002-790)]. The cells are incubated for 20 minutes at 37° C. […] The cells are treated with 50 μL of lysis buffer (HRTF cAMP kit, Cisbio) for 30 minutes and then the lysate is diluted to 250 μL with assay buffer. The lysate is transferred to 384-well plates and cAMP detection and visualization antibodies are added and incubated for 1-24 hours at room temperature. The time-resolved fluorescent signal is read with a Tecan M1000Pro multiplate reader. The intracellular cAMP concentrations are calculated by regression to a standard curve and are plotted vs. the concentration of the compounds of the invention and the EC50 of the compounds are calculated using standard methods. All data manipulations are in GraphPad Prism v6 or v7.

T1 sequence (P35346 whole entry): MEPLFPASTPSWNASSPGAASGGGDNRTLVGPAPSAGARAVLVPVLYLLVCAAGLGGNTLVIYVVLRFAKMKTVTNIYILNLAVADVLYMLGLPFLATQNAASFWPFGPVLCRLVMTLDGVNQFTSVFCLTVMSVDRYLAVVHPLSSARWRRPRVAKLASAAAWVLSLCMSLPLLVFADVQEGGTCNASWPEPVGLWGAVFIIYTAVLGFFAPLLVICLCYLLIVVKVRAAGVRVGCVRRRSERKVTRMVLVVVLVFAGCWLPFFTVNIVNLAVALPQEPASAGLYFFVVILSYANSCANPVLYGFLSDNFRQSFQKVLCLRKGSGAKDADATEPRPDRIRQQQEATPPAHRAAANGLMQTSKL

Structure (SMILES)	pEC50 (Table A)	pEC50 (Table B)
N[C@H]1CCN(c2c(C(=O)NC3CCC(F)(F)CC3)cnc(OCCC(=O)O)c2-c2cc(F)cc(F)c2)C1 [1-204, 3-({4-[(3S)-3-aminopyrrolidin-1-yl]-5-[(4,4-difluorocyclohexyl)carbamoyl]-3-(3,5-difluorophenyl)pyridin-2-yl}oxy)propanoic acid]	< 6.00	–
Cc1cnc(C(=O)N[C@@H](C)C2CC2)c(N2CC[C@](C)(N)C2)c1-c1cc(F)cc(F)c1 [4-2, 3-[(3S)-3-amino-3-methylpyrrolidin-1-yl]-N-[(1S)-1-cyclopropylethyl]-4-(3,5-difluorophenyl)-5-methylpyridine-2-carboxamide]	7.00 to 8.00	–
Cc1ncc(C(=O)N[C@@H](C)c2ccccn2)c(N2CC[C@](C)(N)C2)c1-c1cc(F)cc(Cl)c1 [1-243, 4-[(3S)-3-amino-3-methylpyrrolidin-1-yl]-5-(3-chloro-5-fluorophenyl)-6-methyl-N-[(1S)-1-(pyridin-2-yl)ethyl]pyridine-3-carboxamide]	> 8.00	–
Cc1ncc(C(=O)NCC2(O)CCCC2)c(N2CC[C@](C)(N)C2)c1-c1cc(F)cc(F)c1 [1-223, 4-[(3S)-3-amino-3-methylpyrrolidin-1-yl]-5-(3,5-difluorophenyl)-N-[(1-hydroxycyclopentyl)methyl]-6-methylpyridine-3-carboxamide]	7.00 to 8.00	–
Cc1cccc2[nH]c(-c3cncc(C(=O)N(C)CC(F)(F)F)c3N3CC[C@](C)(N)C3)nc12 [2-10, 4-[(3S)-3-amino-3-methylpyrrolidin-1-yl]-N-methyl-5-(4-methyl-1H-1,3-benzodiazol-2-yl)-N-(2,2,2-trifluoroethyl)pyridine-3-carboxamide]	> 8.00	–
COc1ncc(C(=O)N[C@@H](C)C(F)(F)F)c(N2CC[C@H](N)C2)c1-c1cc(F)cc(F)c1 [1-151, 4-[(3S)-3-aminopyrrolidin-1-yl]-5-(3,5-difluorophenyl)-6-methoxy-N-[(2S)-1,1,1-trifluoropropan-2-yl]pyridine-3-carboxamide]	> 8.00	–
C[C@H](NC(=O)c1cnc(C#N)c(-c2cc(F)cc(F)c2)c1N1CC[C@](N)(CF)C1)C1CC1 (single isomer, unassigned) [1-221]	7.00 to 8.00	–
Cc1cccc2[nH]c(-c3cncc(C(=O)NC4CCC(F)(F)CC4)c3N3CC[C@](C)(N)C3)nc12 [2-17, 4-[(3S)-3-amino-3-methylpyrrolidin-1-yl]-N-(4,4-difluorocyclohexyl)-5-(4-methyl-1H-1,3-benzodiazol-2-yl)pyridine-3-carboxamide]	7.00 to 8.00	–
Cc1cccc2[nH]c(-c3cncc(C(=O)NC4CCCC4)c3N3CC[C@](C)(N)C3)nc12 [2-4, 4-[(3S)-3-amino-3-methylpyrrolidin-1-yl]-N-cyclopentyl-5-(4-methyl-1H-1,3-benzodiazol-2-yl)pyridine-3-carboxamide]	> 8.00	–
Cc1cccc2[nH]c(-c3cncc(C(=O)N4CC(C)(C)C4)c3N3CC[C@](C)(N)C3)nc12 [2-21, (3S)-1-[3-(3,3-dimethylazetidine-1-carbonyl)-5-(4-methyl-1H-1,3-benzodiazol-2-yl)pyridin-4-yl]-3-methylpyrrolidin-3-amine]	7.00 to 8.00	–
C[C@]1(N)CCN(c2c(C(=O)NC34CCC(CC3)C4)ccnc2-c2cc(F)cc(F)c2)C1 [3-5, 3-[(3S)-3-amino-3-methylpyrrolidin-1-yl]-N-{bicyclo[2.2.1]heptan-1-yl}-2-(3,5-difluorophenyl)pyridine-4-carboxamide]	7.00 to 8.00	–
Cc1cccc2[nH]c(-c3cncc(C(=O)N4CCC(C)(C)C4)c3N3CC[C@](C)(N)C3)nc12 [2-19, (3S)-1-[3-(3,3-dimethylpyrrolidine-1-carbonyl)-5-(4-methyl-1H-1,3-benzodiazol-2-yl)pyridin-4-yl]-3-methylpyrrolidin-3-amine]	> 8.00	–
N[C@@H]1CN(c2c(C(=O)NC34CC(C3)C4)cncc2-c2cc(F)cc(F)c2)C[C@H]1F [1-37, 4-[(3R,4R)-3-amino-4-fluoropyrrolidin-1-yl]-N-{bicyclo[1.1.1]pentan-1-yl}-5-(3,5-difluorophenyl)pyridine-3-carboxamide]	7.00 to 8.00	–
Cc1ncc(C(=O)N[C@@H](C)C(F)(F)F)c(N2CC[C@](C)(N)C2)c1-c1cc(F)cc(F)c1 [1-147, 4-[(3S)-3-amino-3-methylpyrrolidin-1-yl]-5-(3,5-difluorophenyl)-6-methyl-N-[(2S)-1,1,1-trifluoropropan-2-yl]pyridine-3-carboxamide]	> 8.00	–
C[C@]1(N)CCN(c2c(C(=O)NCC(F)(F)F)cncc2-c2cc(F)cc(F)c2)C1 [1-28, 4-[(3S)-3-amino-3-methylpyrrolidin-1-yl]-5-(3,5-difluorophenyl)-N-(2,2,2-trifluoroethyl)pyridine-3-carboxamide]	7.00 to 8.00	–
Cc1cc(F)cc(-c2cncc(C(=O)Nc3ccn(C)n3)c2N2CC[C@](C)(N)C2)c1 [1-27, 4-[(3S)-3-amino-3-methylpyrrolidin-1-yl]-5-(3-fluoro-5-methylphenyl)-N-(1-methyl-1H-pyrazol-3-yl)pyridine-3-carboxamide]	> 8.00	–
C[C@]1(N)CCN(c2c(C(=O)NC(C3CC3)C3CC3)ccnc2-c2cc(F)cc(F)c2)C1 [3-4, 3-[(3S)-3-amino-3-methylpyrrolidin-1-yl]-N-(dicyclopropylmethyl)-2-(3,5-difluorophenyl)pyridine-4-carboxamide]	> 8.00	–
CC(NC(=O)c1cnc(C#N)c(-c2cc(F)cc(F)c2)c1N1CC[C@](C)(N)C1)c1cn(C)nn1 (stereo partly drawn) [1-133, 4-[(3S)-3-amino-3-methylpyrrolidin-1-yl]-6-cyano-5-(3,5-difluorophenyl)-N-[1-(1-methyl-1H-1,2,3-triazol-4-yl)ethyl]pyridine-3-carboxamide]	6.00 to 7.00	–
C[C@H](NC(=O)c1cncc(-c2cccc(OC(F)F)c2)c1N1CC[C@](C)(N)C1)C1CC1 [1-149, 4-[(3S)-3-amino-3-methylpyrrolidin-1-yl]-N-[(1S)-1-cyclopropylethyl]-5-[3-(difluoromethoxy)phenyl]pyridine-3-carboxamide]	> 8.00	–
C[C@H](NC(=O)c1ncc(C(N)=O)c(-c2cc(F)cc(F)c2)c1N1CC[C@](C)(N)C1)C1CC1 [4-5, 3-[(3S)-3-amino-3-methylpyrrolidin-1-yl]-N2-[(1S)-1-cyclopropylethyl]-4-(3,5-difluorophenyl)pyridine-2,5-dicarboxamide]	< 6.00	–
Cc1ncc(C(=O)N[C@@H](C)C2CC2)c(N2CC[C@](C)(N)C2)c1-c1cnn(CC(F)(F)F)c1 [1-155, 4-[(3S)-3-amino-3-methylpyrrolidin-1-yl]-N-[(1S)-1-cyclopropylethyl]-6-methyl-5-[1-(2,2,2-trifluoroethyl)-1H-pyrazol-4-yl]pyridine-3-carboxamide]	< 6.00	< 6.00
COc1ncc(C(=O)N[C@H]2CCC(F)(F)C2)c(N2CC[C@](C)(N)C2)c1-c1cc(F)cc(F)c1 [1-145, 4-[(3S)-3-amino-3-methylpyrrolidin-1-yl]-N-[(1S)-3,3-difluorocyclopentyl]-5-(3,5-difluorophenyl)-6-methoxypyridine-3-carboxamide]	> 8.00	–
CC(C)(C)NC(=O)c1cncc(-c2cc(F)cc(F)c2)c1N1CC[C@](C)(N)C1 [1-29, 4-[(3S)-3-amino-3-methylpyrrolidin-1-yl]-N-tert-butyl-5-(3,5-difluorophenyl)pyridine-3-carboxamide]	7.00 to 8.00	–
